Assay results: patent US5972636A (priority 1997, dated 1999)
Like-named read-outs stand apart in the source and are kept apart here.

B1: cystatin B (protein, UniProt P04080 1-98, looked up)
Cystatin-B: MMCGAPSATQPATAETQHIADQVRSQLEEKENKKFPVFKAVSFKSQVVAGTNYFIKVHVGDEDFVHLRVFQSLPHENKPLTLSNYQTNKAKHDELTYF
B2: cystatin C: member of the cystatin superfamily (protein, UniProt P01034 27-146, looked up)
Cystatin-C: SSPGKPPRLVGGPMDASVEEEGVRRALDFAVGEYNKASNDMYHSRALQVVRARKQIVAGVNYFLDVELGRTTCTKTQPNLDNCPFHDQPHLKRKAFCSFQIYAVPWQGTMTLSKSTCQDA

What was measured:
[1] = test system: 1500 kDa complex (proteasome-multipain); settings: for effect of nucleotides on Ub-125I-lysozyme hydrolysis by the complex, in words / Realtive Activity (%) Complex, Ub-lysozyme degradation: Table VIII; for Realtive Activity (%) Complex, Ub-lysozyme degradation: 2 mM of the nucleotide or 10 mM PPi
[2] = test system: new protease (multipain) from skeletal muscle; settings: for effect of nucleotides on Ub-125I-lysozyme hydrolysis by the purified enzyme, in words / Relative activity (%), degradation of Ub-125I-lysozyme by the new activity: Table III; for Relative activity (%), degradation of Ub-125I-lysozyme by the new activity: 2 mM of the nucleotides or 10 mM PPi, 37° C. 1 hour; for Relative activity (%) NEW […] Ub-lysozyme / Relative activity (%) NEW […] OH/O2 - treated hemoglobin / Relative activity (%) NEW […] lysozyme: Table IV, 37° C. 1 h; for Relative activity (%) NEW […] Ub-lysozyme: DFP 1 mM, Cystatin A 4 uM, Hemin 0.1 mM, NEM 1 mM, Leupeptin 0.1 mM, E64 0.1 mM, NaOleate 0.125 mM, SDS 0.01%, o-Phenanthroline 0.1 mM; for Relative activity (%) NEW […] OH/O2 - treated hemoglobin / Relative activity (%) NEW […] lysozyme: concentrations as in E1
[3] = test system: proteasome-multipain complex formation; type: biochemical, rabbit; settings: DFP 1 mM or cystatin 4 μM preincubated 10 min; AMP-PNP in place of ATP
[4] = test system: ATP-ubiquitin-dependent proteolytic system; test: ATP-ubiquitin-activated proteolysis in extracts (Fraction II) of psoas muscle; type: biochemical, rabbit
Source text: Psoas muscles from fed and fasted rabbits were used to obtain sufficient material for assay of the ATP-dependent system in cell-free extracts. Fasted rabbits were deprived of food for sufficient time to cause a weight loss of about 20% (similar to that seen in rats deprived of food for 1 day). The animals were anesthesized, and their psoas muscles dissected and homogenized as described previously. Fagan, J. M., et al., J. Biol. Chem., 261: 5705-5713 (1986).
After centrifugation at 10,000×g and then at 100,000×g, the muscle extracts were fractionated on DE52 cellulose to remove ubiquitin and most cell proteins, as described previously. Han, H. Q. et al., Federation Proc, 2:A564 (1988) and Waxman, L., et al., J. Biol. Chem., 262:2451-2457 (1987). The fraction containing the ATP-ubiquitin-dependent proteolytic system (Herskho, A., J. Biol. Chem., 263:15237-15240 (1988); Rechsteiner, M., Ann. Rev. Cell Biol., 3:1-30 (1987) and Fagan, J. M., et al. Biochem J., 243:335-343 (1987)) was eluted with 0.5M NaCl ("Fraction II"), dialyzed against a buffer containing Tris (50 mM, pH7.8), dithiothreitol (1 mM), and 20% glycerol, and concentrated before assay of activity. Degradation of endogenous muscle proteins was assayed by measuring the production of free tyrosine, which was determined fluorometrically after precipitation of proteins with trichloroacetic acid. Tischler, M. et al., J. Biol, Chem., 257:1613-1621 (1982) and Fulks, R., et al., J. Biol. Chem., 250:290-298 (1975). In addition, the degradation of ^14 C-casein was assayed by measuring the production of acid-soluble radioactivity. Waxman, L., et al., J. Biol. Chem., 262:2451-2457 (1987) and Fagan, J. M., Biochem J., 243:335-343 (1987).

[5] = molecular target: T1, proteasome from skeletal muscle (Oryctolagus cuniculus, UniProt G1T4Q9); type: biochemical, rabbit
T1 construct: from tissue; host or cells: rabbit skeletal (psoas) muscle, proteasome fraction after Mono Q and Superose 6

[6] = Table VII, None = 100, 2 mM ATP, DFP 1 mM, Cystatin 4 μM, NEM 1 mM, Leupeptin 100 μM, E-64 100 μM, Sodium oleate 125 μM, SDS 0.01%, o-Phenanthroline 100 μM
[7] = Table VII, substrate Ub-125I-lysozyme, None = 100, 2 mM ATP, concentrations as in E5

Row | Molecule | Realtive Activity (%) Complex, Ub-lysozyme degradation ([1]; None = 100) [%] | Relative activity (%), degradation of Ub-125I-lysozyme by the new activity ([2]; None = 100) [%] | Realtive Activity (%) Proteasome (sLLVT-MCA) [5] [%] | Relative activity (%) […]-MCA [5] [%] | Relative activity (%) NEW […] Ub-lysozyme ([2]; None = 100, 2 mM ATP) [%] | Relative activity (%) NEW […] OH/O2 - treated hemoglobin ([2]; None = 100, 2 mM ATP) [%] | Relative activity (%) NEW […] lysozyme ([2]; None = 100, 2 mM ATP) [%] | also measured
1 | Nc1ncnc2c1ncn2[C@@H]1O[C@H](COP(=O)(O)OP(=O)(O)O)[C@@H](O)[C@H]1O [ADP] | 146 | 113 | – | – | – | – | – | effect of nucleotides on Ub-125I-lysozyme hydrolysis by the complex, in words [1]: no significant effect; effect of nucleotides on Ub-125I-lysozyme hydrolysis by the purified enzyme, in words [2]: no significant effect
2 | Nc1ncnc2c1ncn2[C@@H]1O[C@H](COP(=O)(O)O)[C@@H](O)[C@H]1O [AMP] | 99 | 130 | – | – | – | – | – | effect of nucleotides on Ub-125I-lysozyme hydrolysis by the complex, in words [1]: no significant effect; effect of nucleotides on Ub-125I-lysozyme hydrolysis by the purified enzyme, in words [2]: no significant effect
3 | Nc1ncnc2c1ncn2[C@@H]1O[C@H](COP(=O)(O)OP(=O)(O)OP(O)(O)=S)[C@@H](O)[C@H]1O [ATP-γ-S, adenosine 5'-o-thiotriphosphate] | 135 | 103 | – | – | – | – | – | effect of nucleotides on Ub-125I-lysozyme hydrolysis by the complex, in words [1]: No stimulation; effect of nucleotides on Ub-125I-lysozyme hydrolysis by the purified enzyme, in words [2]: No stimulation
4 | Nc1ncnc2c1ncn2[C@@H]1O[C@H](COP(=O)(O)OP(=O)(O)OP(=O)(O)O)[C@@H](O)[C@H]1O [ATP] | 458 | 743 | – | – | – | – | – | ATP concentration of maximal stimulation of conjugate degradation, 1500 kDa complex [1]: about 0.7 mM; stimulation of degradation of Ub-125I-lysozyme, 125I-lysozyme, sLLVT-MCA or casein by the complex ([1]; 1500 kda proteasome-multipain complex): 3-5 fold; Km ([1]; read-out: Km for ATP, 1500 kDa complex, Ub-conjugate degradation): ≤ 300 µM; effect on formation of the proteasome-multipain complex, in words [3]: allowed formation of a 1300 kDa complex; stimulation of Ub-lysozyme hydrolysis by the new protease ([2]; ATP 2 mM where stated, 60 min): 5 fold; stimulation of lysozyme degradation by the new protease ([2]; ATP 2 mM where stated, 60 min): 3 fold; Km ([2]; read-out: Km for ATP, multipain, Ub-conjugate degradation): ≤ 300 µM; 14C-Casein Hydrolysis [4]: 2.3 ± 0.2 ug casein hydrolyzed/1 hr; Hydrolysis of Endogenous Proteins ([4]; Fasted rabbits, No addition 2.0 ± 0.1, ATP 5 mM, ubiquitin 15 μM): 10.8 ± 2.1 nmol try released/2 hr; Hydrolysis of Endogenous Proteins ([4]; Fed rabbits, No addition 0.6 ± 0.1, ATP 5 mM, ubiquitin 15 μM): 5.7 ± 0.9 nmol try released/2 hr; 14C-Casein Hydrolysis ([4]; Fed rabbits, No addition 1.1 ± 0.2, ATP 5 mM, ubiquitin 15 μM): 1.5 ± 0.2 ug casein hydrolyzed/1 hr
5 | Nc1ccn([C@@H]2O[C@H](COP(=O)(O)OP(=O)(O)OP(=O)(O)O)[C@@H](O)[C@H]2O)c(=O)n1 [CTP] | 410 | 373 | – | – | – | – | – | stimulation of Ub-lysozyme hydrolysis by the new protease ([2]; ATP 2 mM where stated, 60 min): ~4 fold
6 | CC(C)C[C@H](NC(=O)[C@H]1O[C@@H]1C(=O)O)C(=O)NCCCCNC(=N)N [E64] | – | – | 100 | 100 | 100 | 100 | 100 | effect on the complex, in words ([1]; Table VII): did not show any significant effect on the complex; Realtive Activity (%) Complex (Ub-125I-Lysozyme) [1, 6]: 96%; Realtive Activity (%) Multipain [2, 7]: 100%; effect on Ub-conjugate breakdown by the new protease (multipain), in words ([2]; text): not at all; effect on Ub-conjugate breakdown by the new protease (multipain), in words ([2]; text, listed as E-64): unable to inhibit multipain
7 | Nc1nc2c(ncn2[C@@H]2O[C@H](COP(=O)(O)OP(=O)(O)OP(=O)(O)O)[C@@H](O)[C@H]2O)c(=O)[nH]1 [GTP] | 326 | 435 | – | – | – | – | – | stimulation of Ub-lysozyme hydrolysis by the new protease ([2]; ATP 2 mM where stated, 60 min): ~4 fold
8 | CC(=O)N[C@@H](CC(C)C)C(=O)N[C@@H](CC(C)C)C(=O)N[C@H](C=O)CCCNC(=N)N [Leupeptin] | – | – | 83 | 83 | 69 | 73 | 72 | effect on the complex, in words ([1]; Table VII): did not show any significant effect on the complex; Realtive Activity (%) Complex (Ub-125I-Lysozyme) [1, 6]: 75%; Realtive Activity (%) Multipain [2, 7]: 69%; inhibition of Ub-conjugate breakdown by the new protease ([2]; cystatin B at concentrations similar to cystatin A): 30%
9 | CCN1C(=O)C=CC1=O [NEM, N-ethylmaleimide] | – | – | 37 | 37 | 29 | 30 | 27 | inhibition of conjugate breakdown by the complex ([1]; Table VII): 65%; Realtive Activity (%) Complex (Ub-125I-Lysozyme) [1, 6]: 33%; Realtive Activity (%) Multipain [2, 7]: 29%; effect on Ub-conjugate breakdown by the new protease (multipain), in words ([2]; text): strongly inhibited this activity
10 | CCCCCCCC/C=C\CCCCCCCC(=O)[O-].[Na+] [NaOleate, Sodium oleate] | – | – | 179 | 179 | 29 | 40 | 34 | Realtive Activity (%) Complex (Ub-125I-Lysozyme) [1, 6]: 38%; Realtive Activity (%) Multipain [2, 7]: 29%
11 | CCCCCCCCCCCCOS(=O)(=O)[O-].[Na+] [SDS, sodium dodecyl sulfate] | – | – | 125 | 125 | – | 42 | 46 | Realtive Activity (%) Complex (Ub-125I-Lysozyme) [1]: 46%; Realtive Activity (%) Multipain [2]: 44%; Relative activity (%) NEW PROTEASE Ub-lysozyme [2]: 44%
12 | O=c1ccn([C@@H]2O[C@H](COP(=O)(O)OP(=O)(O)OP(=O)(O)O)[C@@H](O)[C@H]2O)c(=O)[nH]1 [UTP] | 174 | 108 | – | – | – | – | – | –
13 | c1cnc2c(c1)ccc1cccnc12 [o-Phenanthroline] | – | – | 60 | 60 | 48 | 54 | 55 | inhibition of conjugate breakdown by the complex ([1]; Table VII): about 60%; Realtive Activity (%) Complex (Ub-125I-Lysozyme) [1, 6]: 57%; Realtive Activity (%) Multipain [2, 7]: 48%; effect on Ub-conjugate breakdown by the new protease (multipain), in words ([2]; text): showed some inhibition
14 | CBZ-ala-arg-arg-CK | – | – | – | – | – | – | – | concentration that inactivates the 1500 kDa complex [1]: 50 µM; concentration that inactivates multipain [2]: 50 µM
15 | Hemin | – | – | – | 0 | 0 | 7 | 0 | effect on Ub-conjugate breakdown by the new protease (multipain), in words ([2]; text): blocked conjugate-degrading activity; effect on Ub-conjugate breakdown by the new protease (multipain), in words ([2]; text, listed as hemin): is sensitive to
16 | B1 | – | – | – | – | – | – | – | inhibition of Ub-conjugate breakdown by the new protease [2]: 55%
17 | B2 | – | – | – | – | – | – | – | effect on Ub-conjugate breakdown by the new protease (multipain), in words [2]: no significant effect
